Columns and labels:
[1] = system: arachidonic acid induced bronchoconstriction; assay: Arachidonic acid induced bronchoconstriction and hypotension in the anaesthetized dog; format: in vivo; conditions: intraduodenal administration
[2] = system: PGEA-induced bronchoconstriction (R2); assay: Inhibition of PGEA-induced bronchoconstriction in the guinea pig in vivo; conditions: Cavia porcellus, IV injection

**Q.** `O=S1(=O)c2ccccc2COc2ccc(CO)cc21` [Example 13, 2-Hydroxymethy!-6H-dibenz[b,e][1,4]oxathiepin-11,11-dioxide] was tested. Which “inhibition of arachidonic acid induced bronchoconstriction” value [1] did it give?
**A.** inhibited

**Q.** What about the “inhibition of arachidonic acid induced hypotension” value [1] of the same compound?
**A.** not

**Q.** What about the ED50 [2] of the same compound?
**A.** 10.5 mg/kg
